Test results: BigSolDB 2.1

NC(N)=NCCC[C@H](NC(=O)OCc1ccccc1)C(=O)O
solubility (mole fraction)
Conditions | 283.15 K | 288.15 K | 293.15 K | 298.15 K | 303.15 K | 313.15 K | 323.15 K
in 2-butanone | 9.88e-05 | – | 0.000118 | – | 0.000136 | 0.000164 | 0.000196
in DMF | 0.00164 | – | 0.00346 | – | 0.00597 | 0.00993 | 0.0183
in acetone | 2.5e-05 | – | 4.7e-05 | – | 5.73e-05 | 6.89e-05 | 9.91e-05
in acetonitrile | 1.5e-05 | – | 2.71e-05 | – | 3.52e-05 | 4.03e-05 | 4.82e-05
in dichloromethane | 8.03e-05 | 0.000103 | 0.000144 | 0.000183 | 0.000233 | – | –
in ethanol | 0.000193 | – | 0.000255 | – | 0.000379 | 0.000558 | 0.000898
in ethyl acetate | 4.73e-05 | – | 6.24e-05 | – | 7.31e-05 | 8.72e-05 | 9.78e-05
in isopropanol | 7.15e-05 | – | 0.000127 | – | 0.000163 | 0.000223 | 0.000275
in methanol | 0.000468 | – | 0.000602 | – | 0.00107 | 0.00137 | 0.00207
in n-butanol | 6.05e-05 | – | 0.000103 | – | 0.000141 | 0.000178 | 0.000239
in n-hexane | 4.3e-05 | – | 5.7e-05 | – | 7.42e-05 | 8.12e-05 | 0.000119
in water | 0.000198 | – | 0.000307 | – | 0.000417 | 0.000663 | 0.00104
